Experimental data taken from patent US20140296176A1, “COMBINATION CANCER THERAPY WITH AN HSP90 INHIBITOR AND AN ANTIMETABOLITE” (Synta Pharmaceuticals Corp., priority 2011, published 2014).

Columns and labels:
[1] = system: MOLT-4 cells; test: alamarBlue cell viability assay, MOLT-4 cells; type: cell-based; conditions: Homo sapiens, 72 hr drug exposure, four parameter logistic fit
Procedure: (§1) Human MOLT-3, MOLT-4 and Jurkat T cell leukemia cells were purchased from the American Type Culture Collection (Manassas, Va.) and grown in RPMI (Sigma), following ATCC recommendations, in the presence of fetal bovine serum (10%), 2 mM L-glutamine and antibiotics (100 IU/ml penicillin and 100 μg/ml streptomycin, Sigma). Cells were maintained at 37° C., 5% CO2 atmosphere.
(§2) Cell viability was measured using the alamarBlue assay (Invitrogen). In brief, cells were plated in 96-well plates in triplicate at 20K, 15K or 15K cells per well for MOLT-3, MOLT-4 or Jurkat cells respectively, and incubated at 37° C., 5% CO2 atmosphere for 24 hr prior to the addition of drug or vehicle (0.3% DMSO) to the culture medium. After 72 hr, 10 μl/well Alamar Blue was added to the wells and incubated for an additional 3 hr at 37° C., 5% CO2 atmosphere. Fluorescence (560EX/590EM nM) was measured with a SpectraMax microplate reader (Molecular Devices) and the resulting data were used to calculate cell viability, normalized to vehicle control.
After MOLT-4 cells were exposed to drug for 72 hr, cell viability was measured and results were fit to a four parameter logistic model (XLFit, ID Business Solutions) shown in FIG. 1.
(§3) Combinations between ganetespib and the nucleoside analog Ara-G were then performed in MOLT-4 cells concurrently based on the IC50 for each agent. The combined drugs, as well as each drug alone, were incubated with the cells for 3 days and the surviving fraction of cells relative to control was determined using the alamarBlue assay.

[2] = system: HCT-116 colorectal cancer cells; test: alamarBlue cell viability assay, HCT-116 cells; type: cell-based; conditions: Homo sapiens, 72 hr drug exposure
Procedure: as §1, with “HCT-116 colorectal cancer” for “MOLT-3, MOLT-4 and Jurkat T cell leukemia”, “cells (CRC)” for “cells”, “McCoy's 5a media” for “RPMI”
as §2, with “5K” for “20K, 15K or 15K”, “well” for “well for MOLT-3, MOLT-4 or Jurkat cells respectively,”, “After 72 hr, 10 μl/well Alamar Blue was added to the wells and incubated for an additional 3 hr at 37° C., 5% CO2 atmosphere.” left out
After HCT-116 cells were exposed to drug for 72 hr, cell viability was measured and results were fit to a four parameter logistic model (XLFit, ID Business Solutions).
as §3, with “fluorouracil” for “the nucleoside analog Ara-G”, “HCT-116” for “MOLT-4”, “agent in matrix format with 54 combination pairs for each drug.” for “agent.”

[3] = system: NSCLC having a KRAS mutation; test: Phase 2 trial with ganetespib; type: in vivo, human; conditions: at 8 weeks
[4] = system: human KRAS mutant NSCLC tumor xenografts; test: KRAS mutant NSCLC tumor xenografts in vivo; set-up: species or system mouse
[5] = system: KRAS mutant NSCLC cell lines; test: cell viability in panel of KRAS mutant NSCLC cell lines; type: cell-based; conditions: Homo sapiens; across 15 KRAS mutant NSCLC cell lines in vitro
Procedure: For combinatorial analysis, cells were seeded in 96-well plates at a predetermined, optimum growth density for 24 h prior to the addition of drug or vehicle to the culture medium. Drug combinations were applied at a non-constant ratio over a range of concentrations for 72 or 96 hours. […] Cell viability was assessed by either AlamarBlue® (Invitrogen, Carlsbad, Calif.) or CellTiter-Glo® assays and normalized to vehicle controls. For each combination study, the level of growth inhibition (fraction affected) is plotted relative to vehicle control. Data are presented as one relevant combination point and the corresponding single agent data for each cell line tested.

[6] = system: KRAS substrates, including BRAF and CRAF; test: destabilization of KRAS substrates in KRAS mutant NSCLC cells; type: cell-based, human; conditions: leading to inactivation of downstream effectors and programmed cell death

## Nc1ccn([C@@H]2O[C@H](CO)[C@@H](O)[C@@H]2O)c(=O)n1 [Ara-C, cytarabine]
[1]
  IC50: ~0.025 µM

## O=c1[nH]cc(F)c(=O)[nH]1 [5-FU, 5-fluorouracil, reference compound]
[2]
  IC50: ~4.5 µM

## COc1nc(N)nc2c1ncn2[C@@H]1O[C@H](CO)[C@@H](O)[C@@H]1O [Ara-G, nelarabine]
[1]
  IC50: ~2 µM

## CC(C)c1cc(-c2nnc(O)n2-c2ccc3c(ccn3C)c2)c(O)cc1O [ganetespib, 3-(2,4-dihydroxy-5-isopropyl-phenyl)-4-(1-methyl-indol-5-yl)-5-hydroxy-[1,2,4]triazole]
[3]
  patients exhibiting tumor shrinkage: > 60%
[4]
  growth of tumor xenografts: effectively suppressed the growth
[5]
  IC50: 0.024 µM
[2]
  IC50: ~0.032 µM
[1]
  IC50: ~0.02 µM
[6]
  destabilization of KRAS substrates: induced the destabilization
